Data taken from patent publication US4564684A, “3-Amino-1-phenyl-2-pyrazolines” (priority 1980, dated 1986).
Counter-ions that a name gives are not always drawn.

How the values were obtained:
lipoxygenase = assay: Inhibition of lipoxygenase in an enzyme assay according to the method of Blackwell and Flower; type: biochemical; settings: Table I, read-out: ED50 for inhibition of lipoxygenase
cyclo-oxygenase = assay: Inhibition of cyclo-oxygenase in an enzyme assay according to the method of Blackwell and Flower; type: biochemical; settings: Table I, read-out: ED50 for inhibition of cyclo-oxygenase

Row | IC50 (lipoxygenase) [µM] | IC50 (cyclo-oxygenase) [µM] | Structure (SMILES)
1 | ~0.3 | ~0.3 | CNC1=NN(c2cccc(C(F)(F)F)c2)CC1 [Example 1, 3-methylamino-1-(3-trifluoromethylphenyl)-2-pyrazoline]
2 | ~0.7 | ~0.8 | CCNC1=NN(c2cccc(C(F)(F)F)c2)CC1 [Example 2, 3-ethylamino-1-(3-trifluoromethylphenyl)-2-pyrazoline]
3 | < 0.3 | < 0.3 | CCCNC1=NN(c2cccc(C(F)(F)F)c2)CC1 [Example 3, 3-propylamino-1-(3-trifluoromethylphenyl)-2-pyrazoline]
4 | < 0.3 | < 0.3 | CCCCNC1=NN(c2cccc(C(F)(F)F)c2)CC1 [Example 4, 3-butylamino-1-(3-trifluoromethylphenyl)-2-pyrazoline]
5 | ~0.3 | ~0.3 | FC(F)(F)c1cccc(N2CCC(NCc3ccccc3)=N2)c1 [Example 5, 3-benzylamino-1-(3-trifluoromethylphenyl)-2-pyrazoline hydrochloride]
